Data from patent US6355799B1, “Substituted benzene compounds, process for their preparation, and herbicidal and defoliant compositions containing them” (ISK Americas Incorporated, priority 1997, dated 2002).

Experiments:
Type in all cases: in vivo
[1] = tested on: redroot pigweed (Amaranthus retroflexus, AMARE); assay: Pre-emerge test, greenhouse herbicide activity screening; conditions: rating scale 0-100, 14 days after application
In short: (§1)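 Rating: 0–100 visual injury, 14 DAA. Application: acetone, 187 l/ha, 15–1000 g ai/ha, flat-fan track sprayer with nozzle 40–45 cm above soil or canopy. Post-emerge runs used 0.25% v/v surfactant on 2–3 leaf plants.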

[2] = tested on: barnyardgrass (Echinochloa crus-galli, ECHCG); assay: as above; conditions: rating scale 0-100, 14 days after application
In short: (§2)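 Applied at 15–1000 g ai/ha from acetone in 187 l/ha spray volume. Post-emergence applications included 0.25% v/v non-ionic surfactant and reached plants sown 8–21 days before. Pre-emergence applications were incorporated by surface watering. Efficacy or crop damage was rated on a 0–100 scale after 14 days.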

[3] = tested on: green foxtail (Setaria viridis, SETVI); assay: as above; conditions: rating scale 0-100, 14 days after application
In short: as §2

[4] = tested on: ivyleaf morningglory (Ipomoea hederacea, IPOHE); assay: as above; conditions: rating scale 0-100, 14 days after application
In short: as §2

[5] = tested on: johnsongrass (Sorghum halepense, SORHA); assay: as above; conditions: rating scale 0-100, 14 days after application
In short: as §2

[6] = tested on: lambsquarters (Chenopodium album, CHEAL); assay: as above; conditions: rating scale 0-100, 14 days after application
In short: as §2

[7] = tested on: large crabgrass (Digitaria sanguinalis, DIGSA); assay: as above; conditions: rating scale 0-100, 14 days after application
In short: as §2

[8] = tested on: sicklepod (Cassia obtusifolia, CASOB); assay: as above; conditions: rating scale 0-100, 14 days after application
In short: as §2

[9] = tested on: velvetleaf (Abutilon theophrasti, ABUTH); assay: as above; conditions: rating scale 0-100, 14 days after application
In short: as §2

[10] = tested on: field corn (Zea mays L., var. Dekalb 535, CORN); assay: Pre-emerge test, crop safety; conditions: rating scale 0-100, 14 days after application
In short: as §1

[11] = tested on: upland rice (Oryza sp., var. Tebonnet, RICE); assay: Pre-emerge test, crop safety; conditions: rating scale 0-100, 14 days after application
In short: as §1

[12] = tested on: barnyardgrass (Echinochloa crus-galli, ECHCG); assay: Post-emerge test, greenhouse herbicide activity screening; conditions: rating scale 0-100 (0 no damage, 100 complete death), 14 days after application
In short: (§3)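 Compounds in acetone were track-sprayed at 187 l/ha, 15–1000 g ai/ha, onto sandy loam pots. Pre-emerge seeds were sown one day before spraying, with surface watering afterwards. Post-emerge plants were at the 2–3 leaf stage and sprayed with 0.25% v/v non-ionic surfactant. Injury was rated 0–100 at 14 days.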

[13] = tested on: common ragweed (Ambrosia artemisizfolia L., AMBEL); assay: as above; conditions: rating scale 0-100 (0 no damage, 100 complete death), 14 days after application
In short: as §3

[14] = tested on: green foxtail (Setaria viridis, SETVI); assay: as above; conditions: rating scale 0-100 (0 no damage, 100 complete death), 14 days after application
In short: as §3

[15] = tested on: ivyleaf morningglory (Ipomoea hederacea, IPOHE); assay: as above; conditions: rating scale 0-100 (0 no damage, 100 complete death), 14 days after application
In short: as §3

[16] = tested on: johnsongrass (Sorghum halepense, SORHA); assay: as above; conditions: rating scale 0-100 (0 no damage, 100 complete death), 14 days after application
In short: as §3

[17] = tested on: lambsquarters (Chenopodium album, CHEAL); assay: as above; conditions: rating scale 0-100 (0 no damage, 100 complete death), 14 days after application
In short: as §3

[18] = tested on: large crabgrass (Digitaria sanguinalis, DIGSA); assay: as above; conditions: rating scale 0-100 (0 no damage, 100 complete death), 14 days after application
In short: as §3

[19] = tested on: redroot pigweed (Amaranthus retroflexus, AMARE); assay: as above; conditions: rating scale 0-100 (0 no damage, 100 complete death), 14 days after application
In short: as §3

[20] = tested on: sicklepod (Cassia obtusifolia, CASOB); assay: as above; conditions: rating scale 0-100 (0 no damage, 100 complete death), 14 days after application
In short: as §3

[21] = tested on: velvetleaf (Abutilon theophrasti, ABUTH); assay: as above; conditions: rating scale 0-100 (0 no damage, 100 complete death), 14 days after application
In short: as §3

[22] = tested on: field corn (Zea mays L., var. Dekalb 535, CORN); assay: Post-emerge test, crop safety; conditions: rating scale 0-100 (0 no damage, 100 complete death), 14 days after application
In short: as §2

[23] = tested on: upland rice (Oryza sp., var. Tebonnet, RICE); assay: Post-emerge test, crop safety; conditions: rating scale 0-100 (0 no damage, 100 complete death), 14 days after application
In short: as §2

CCCCCOC(=O)C(C)(Cl)Cc1c(OC)c(Cl)cc(F)c1-n1c(=O)cc(C(F)(F)F)n(C)c1=O (centres unmarked) [14-37]
Pre-emerge herbicidal activity, phytotoxicity rating AMARE ([1]; 63 g ai/ha): 100
Pre-emerge herbicidal activity, phytotoxicity rating AMARE ([1]; 250 g ai/ha): 100
Pre-emerge herbicidal activity, phytotoxicity rating ECHCG ([2]; 63 g ai/ha): 0
Pre-emerge herbicidal activity, phytotoxicity rating ECHCG ([2]; 250 g ai/ha): 99
Pre-emerge herbicidal activity, phytotoxicity rating SETVI ([3]; 63 g ai/ha): 0
Pre-emerge herbicidal activity, phytotoxicity rating SETVI ([3]; 250 g ai/ha): 95
Pre-emerge herbicidal activity, phytotoxicity rating IPOHE ([4]; 63 g ai/ha): 0
Pre-emerge herbicidal activity, phytotoxicity rating IPOHE ([4]; 250 g ai/ha): 0
Pre-emerge herbicidal activity, phytotoxicity rating SORHA ([5]; 63 g ai/ha): 0
Pre-emerge herbicidal activity, phytotoxicity rating SORHA ([5]; 250 g ai/ha): 0
Pre-emerge herbicidal activity, phytotoxicity rating CHEAL ([6]; 63 g ai/ha): 100
Pre-emerge herbicidal activity, phytotoxicity rating CHEAL ([6]; 250 g ai/ha): 100
Pre-emerge herbicidal activity, phytotoxicity rating DIGSA ([7]; 63 g ai/ha): 0
Pre-emerge herbicidal activity, phytotoxicity rating DIGSA ([7]; 250 g ai/ha): 100
Pre-emerge herbicidal activity, phytotoxicity rating CASOB ([8]; 63 g ai/ha): 0
Pre-emerge herbicidal activity, phytotoxicity rating CASOB ([8]; 250 g ai/ha): 0
Pre-emerge herbicidal activity, phytotoxicity rating ABUTH ([9]; 63 g ai/ha): 90
Pre-emerge herbicidal activity, phytotoxicity rating ABUTH ([9]; 250 g ai/ha): 100
Pre-emerge phytotoxicity rating, crop damage CORN ([10]; 63 g ai/ha): 0
Pre-emerge phytotoxicity rating, crop damage CORN ([10]; 250 g ai/ha): 0
Pre-emerge phytotoxicity rating, crop damage RICE ([11]; 63 g ai/ha): 0
Pre-emerge phytotoxicity rating, crop damage RICE ([11]; 250 g ai/ha): 80
Post-emerge Herbicidal Activity, phytotoxicity rating ECHCG ([12]; Rate 63 g ai/ha): 100
Post-emerge Herbicidal Activity, phytotoxicity rating ECHCG ([12]; Rate 250 g ai/ha): 100
Post-emerge Herbicidal Activity, phytotoxicity rating AMBEL ([13]; Rate 63 g ai/ha): 100
Post-emerge Herbicidal Activity, phytotoxicity rating AMBEL ([13]; Rate 250 g ai/ha): 100
Post-emerge Herbicidal Activity, phytotoxicity rating SETVI ([14]; Rate 63 g ai/ha): 90
Post-emerge Herbicidal Activity, phytotoxicity rating SETVI ([14]; Rate 250 g ai/ha): 100
Post-emerge Herbicidal Activity, phytotoxicity rating IPOHE ([15]; Rate 63 g ai/ha): 30
Post-emerge Herbicidal Activity, phytotoxicity rating IPOHE ([15]; Rate 250 g ai/ha): 100
Post-emerge Herbicidal Activity, phytotoxicity rating SORHA ([16]; Rate 63 g ai/ha): 0
Post-emerge Herbicidal Activity, phytotoxicity rating SORHA ([16]; Rate 250 g ai/ha): 30
Post-emerge Herbicidal Activity, phytotoxicity rating CHEAL ([17]; Rate 63 g ai/ha): 100
Post-emerge Herbicidal Activity, phytotoxicity rating CHEAL ([17]; Rate 250 g ai/ha): 100
Post-emerge Herbicidal Activity, phytotoxicity rating DIGSA ([18]; Rate 63 g ai/ha): 80
Post-emerge Herbicidal Activity, phytotoxicity rating DIGSA ([18]; Rate 250 g ai/ha): 100
Post-emerge Herbicidal Activity, phytotoxicity rating AMARE ([19]; Rate 63 g ai/ha): 100
Post-emerge Herbicidal Activity, phytotoxicity rating AMARE ([19]; Rate 250 g ai/ha): 100
Post-emerge Herbicidal Activity, phytotoxicity rating CASOB ([20]; Rate 63 g ai/ha): 20
Post-emerge Herbicidal Activity, phytotoxicity rating CASOB ([20]; Rate 250 g ai/ha): 50
Post-emerge Herbicidal Activity, phytotoxicity rating ABUTH ([21]; Rate 63 g ai/ha): 100
Post-emerge Herbicidal Activity, phytotoxicity rating ABUTH ([21]; Rate 250 g ai/ha): 100
Post-emerge phytotoxicity rating CORN (crop damage) ([22]; Rate 63 g ai/ha): 20
Post-emerge phytotoxicity rating CORN (crop damage) ([22]; Rate 250 g ai/ha): 95
Post-emerge phytotoxicity rating RICE (crop damage) ([23]; Rate 63 g ai/ha): 70
Post-emerge phytotoxicity rating RICE (crop damage) ([23]; Rate 250 g ai/ha): 100

COc1c(Cl)cc(F)c(-n2c(=O)cc(C(F)(F)F)n(C)c2=O)c1CC(C)(Cl)C(=O)OC(C)C (centres unmarked) [14-39]
Pre-emerge herbicidal activity, phytotoxicity rating AMARE ([1]; 63 g ai/ha): 100
Pre-emerge herbicidal activity, phytotoxicity rating AMARE ([1]; 250 g ai/ha): 100
Pre-emerge herbicidal activity, phytotoxicity rating ECHCG ([2]; 63 g ai/ha): 10
Pre-emerge herbicidal activity, phytotoxicity rating ECHCG ([2]; 250 g ai/ha): 95
Pre-emerge herbicidal activity, phytotoxicity rating SETVI ([3]; 63 g ai/ha): 70
Pre-emerge herbicidal activity, phytotoxicity rating SETVI ([3]; 250 g ai/ha): 100
Pre-emerge herbicidal activity, phytotoxicity rating IPOHE ([4]; 63 g ai/ha): 0
Pre-emerge herbicidal activity, phytotoxicity rating IPOHE ([4]; 250 g ai/ha): 0
Pre-emerge herbicidal activity, phytotoxicity rating SORHA ([5]; 63 g ai/ha): 0
Pre-emerge herbicidal activity, phytotoxicity rating SORHA ([5]; 250 g ai/ha): 60
Pre-emerge herbicidal activity, phytotoxicity rating CHEAL ([6]; 63 g ai/ha): 100
Pre-emerge herbicidal activity, phytotoxicity rating CHEAL ([6]; 250 g ai/ha): 100
Pre-emerge herbicidal activity, phytotoxicity rating DIGSA ([7]; 63 g ai/ha): 95
Pre-emerge herbicidal activity, phytotoxicity rating DIGSA ([7]; 250 g ai/ha): 100
Pre-emerge herbicidal activity, phytotoxicity rating CASOB ([8]; 63 g ai/ha): 0
Pre-emerge herbicidal activity, phytotoxicity rating CASOB ([8]; 250 g ai/ha): 20
Pre-emerge herbicidal activity, phytotoxicity rating ABUTH ([9]; 63 g ai/ha): 100
Pre-emerge herbicidal activity, phytotoxicity rating ABUTH ([9]; 250 g ai/ha): 100
Pre-emerge phytotoxicity rating, crop damage CORN ([10]; 63 g ai/ha): 0
Pre-emerge phytotoxicity rating, crop damage CORN ([10]; 250 g ai/ha): 0
Pre-emerge phytotoxicity rating, crop damage RICE ([11]; 63 g ai/ha): 0
Pre-emerge phytotoxicity rating, crop damage RICE ([11]; 250 g ai/ha): 80
Post-emerge Herbicidal Activity, phytotoxicity rating ECHCG ([12]; Rate 63 g ai/ha): 100
Post-emerge Herbicidal Activity, phytotoxicity rating ECHCG ([12]; Rate 250 g ai/ha): 100
Post-emerge Herbicidal Activity, phytotoxicity rating AMBEL ([13]; Rate 63 g ai/ha): 50
Post-emerge Herbicidal Activity, phytotoxicity rating AMBEL ([13]; Rate 250 g ai/ha): 50
Post-emerge Herbicidal Activity, phytotoxicity rating SETVI ([14]; Rate 63 g ai/ha): 95
Post-emerge Herbicidal Activity, phytotoxicity rating SETVI ([14]; Rate 250 g ai/ha): 100
Post-emerge Herbicidal Activity, phytotoxicity rating IPOHE ([15]; Rate 63 g ai/ha): 20
Post-emerge Herbicidal Activity, phytotoxicity rating IPOHE ([15]; Rate 250 g ai/ha): 50
Post-emerge Herbicidal Activity, phytotoxicity rating SORHA ([16]; Rate 63 g ai/ha): 30
Post-emerge Herbicidal Activity, phytotoxicity rating SORHA ([16]; Rate 250 g ai/ha): 40
Post-emerge Herbicidal Activity, phytotoxicity rating CHEAL ([17]; Rate 63 g ai/ha): 100
Post-emerge Herbicidal Activity, phytotoxicity rating CHEAL ([17]; Rate 250 g ai/ha): 100
Post-emerge Herbicidal Activity, phytotoxicity rating DIGSA ([18]; Rate 63 g ai/ha): 60
Post-emerge Herbicidal Activity, phytotoxicity rating DIGSA ([18]; Rate 250 g ai/ha): 100
Post-emerge Herbicidal Activity, phytotoxicity rating AMARE ([19]; Rate 63 g ai/ha): 100
Post-emerge Herbicidal Activity, phytotoxicity rating AMARE ([19]; Rate 250 g ai/ha): 100
Post-emerge Herbicidal Activity, phytotoxicity rating CASOB ([20]; Rate 63 g ai/ha): 60
Post-emerge Herbicidal Activity, phytotoxicity rating CASOB ([20]; Rate 250 g ai/ha): 100
Post-emerge Herbicidal Activity, phytotoxicity rating ABUTH ([21]; Rate 63 g ai/ha): 99
Post-emerge Herbicidal Activity, phytotoxicity rating ABUTH ([21]; Rate 250 g ai/ha): 100
Post-emerge phytotoxicity rating CORN (crop damage) ([22]; Rate 63 g ai/ha): 30
Post-emerge phytotoxicity rating CORN (crop damage) ([22]; Rate 250 g ai/ha): 50
Post-emerge phytotoxicity rating RICE (crop damage) ([23]; Rate 63 g ai/ha): 90
Post-emerge phytotoxicity rating RICE (crop damage) ([23]; Rate 250 g ai/ha): 100
